Results: article PMC5218480 (PLoS ONE, 2017)

Tested on: MV-4-11 cells
Experiment: Gene expression microarray analysis (Affymetrix PrimeView) and GSEA
Assay type: cell-based, human
Design: RFU PODN (11730768_x_at) / Fold change /veh PODN (11730768_x_at) / RFU LINC00158 (11744669_a_at) / Fold change /veh LINC00158 (11744669_a_at) / RFU DUSP10 (11751237_a_at) / Fold change /veh DUSP10 (11751237_a_at) / RFU ID3 (11757404_x_at) / Fold change /veh ID3 (11757404_x_at) / RFU PLEKHG5 (11737974_s_at) / Fold change /veh PLEKHG5 (11737974_s_at) / RFU LRRC4B (11730491_at) / Fold change /veh LRRC4B (11730491_at) / RFU GIMAP4 (11747438_a_at) / Fold change /veh GIMAP4 (11747438_a_at) / RFU KRT8 (11758183_x_at) / Fold change /veh KRT8 (11758183_x_at) / RFU CNN1 (11734310_a_at) / Fold change /veh CNN1 (11734310_a_at) / RFU VPS37D (11726825_at) / Fold change /veh VPS37D (11726825_at) / RFU C10orf10 (11716522_x_at) / Fold change /veh C10orf10 (11716522_x_at) / RFU KIR2DL2 /// KIR2DL4 /// KIR2DL5A /// KIR2DL5B /// KIR2DS1 /// KIR2DS2 /// KIR2DS3 /// KIR2DS4 /// KIR3DL3 /// KIR3DL3 /// KIR3DS1 (11738374_at) / Fold change /veh KIR2DL2 /// KIR2DL4 /// KIR2DL5A /// KIR2DL5B /// KIR2DS1 /// KIR2DS2 /// KIR2DS3 /// KIR2DS4 /// KIR3DL3 /// KIR3DL3 /// KIR3DS1 (11738374_at) / RFU C1QL1 (11718748_at) / Fold change /veh C1QL1 (11718748_at) / RFU TMPRSS4 (11747572_a_at) / Fold change /veh TMPRSS4 (11747572_a_at) / RFU HAMP (11756126_x_at) / Fold change /veh HAMP (11756126_x_at) / RFU RNFT2 (11725882_a_at) / Fold change /veh RNFT2 (11725882_a_at) / RFU NR4A2 (11747474_a_at) / Fold change /veh NR4A2 (11747474_a_at) / RFU ABCC12 (11746883_a_at) / Fold change /veh ABCC12 (11746883_a_at) / RFU TMEM136 (11760407_x_at) / Fold change /veh TMEM136 (11760407_x_at) / RFU CLDN22 /// WWC2 (11732394_at) / Fold change /veh CLDN22 /// WWC2 (11732394_at) / RFU HLA-DPB1 (11760878_x_at) / Fold change /veh HLA-DPB1 (11760878_x_at) / RFU SPINT1 (11716480_a_at) / Fold change /veh SPINT1 (11716480_a_at) / RFU GAP43 (11754022_s_at) / Fold change /veh GAP43 (11754022_s_at) / RFU A4GNT (11735810_at) / Fold change /veh A4GNT (11735810_at) / RFU PRB3 (11715151_x_at) / Fold change /veh PRB3 (11715151_x_at) / RFU TUBB4B (11761932_at) / Fold change /veh TUBB4B (11761932_at) / RFU CAPN14 (11732068_a_at) / Fold change /veh CAPN14 (11732068_a_at) / RFU TMCC2 (11721928_a_at) / Fold change /veh TMCC2 (11721928_a_at) / RFU IRGQ (11745062_a_at) / Fold change /veh IRGQ (11745062_a_at) / RFU FAM174B (11720279_a_at) / Fold change /veh FAM174B (11720279_a_at) / RFU TMPRSS4 (11748680_a_at) / Fold change /veh TMPRSS4 (11748680_a_at) / RFU FAM212B (11763350_a_at) / Fold change /veh FAM212B (11763350_a_at) / RFU PLEKHG5 (11743358_a_at) / Fold change /veh PLEKHG5 (11743358_a_at) / RFU ZSCAN30 (11745921_a_at) / Fold change /veh ZSCAN30 (11745921_a_at) / RFU CMKLR1 (11741424_a_at) / Fold change /veh CMKLR1 (11741424_a_at) / RFU LOC101060620 /// MAPK8IP1 (11723275_at) / Fold change /veh LOC101060620 /// MAPK8IP1 (11723275_at) / RFU SPTSSB (11747773_x_at) / Fold change /veh SPTSSB (11747773_x_at) / RFU PRSS12 (11739890_at) / Fold change /veh PRSS12 (11739890_at) / RFU BIN1 (11741810_x_at) / Fold change /veh BIN1 (11741810_x_at) / RFU WNT11 (11732464_a_at) / Fold change /veh WNT11 (11732464_a_at) / RFU C10orf10 (11716521_a_at) / Fold change /veh C10orf10 (11716521_a_at) / RFU C5orf56 (11738089_at) / Fold change /veh C5orf56 (11738089_at) / RFU CYB561 (11721691_x_at) / Fold change /veh CYB561 (11721691_x_at) / RFU ANKRD19P (11752326_a_at) / Fold change /veh ANKRD19P (11752326_a_at) / RFU OR2T12 /// OR2T33 /// OR2T8 (11738714_s_at) / Fold change /veh OR2T12 /// OR2T33 /// OR2T8 (11738714_s_at) / RFU VCAN (11748164_a_at) / Fold change /veh VCAN (11748164_a_at) / RFU JSRP1 (11732532_at) / Fold change /veh JSRP1 (11732532_at) / RFU KRTAP10-11 (11738290_x_at) / Fold change /veh KRTAP10-11 (11738290_x_at) / RFU MYO3A (11730013_a_at) / Fold change /veh MYO3A (11730013_a_at) / RFU EBF3 (11725865_a_at) / Fold change /veh EBF3 (11725865_a_at) / RFU CAMK2N1 (11719241_x_at) / Fold change /veh CAMK2N1 (11719241_x_at) / RFU C5orf56 (11738088_a_at) / Fold change /veh C5orf56 (11738088_a_at) / RFU OLFML3 (11715873_a_at) / Fold change /veh OLFML3 (11715873_a_at) / RFU LOC100653217 /// NTM (11731650_a_at) / Fold change /veh LOC100653217 /// NTM (11731650_a_at) / RFU MAPK11 (11762145_a_at) / Fold change /veh MAPK11 (11762145_a_at) / RFU FIZ1 (11724087_x_at) / Fold change /veh FIZ1 (11724087_x_at) / RFU OASL (11726364_x_at) / Fold change /veh OASL (11726364_x_at) / RFU SOX15 (11748057_x_at) / Fold change /veh SOX15 (11748057_x_at) / RFU CD79A (11719716_a_at) / Fold change /veh CD79A (11719716_a_at) / RFU HIST1H1D (11736915_at) / Fold change /veh HIST1H1D (11736915_at) / RFU CASKIN2 (11723855_a_at) / Fold change /veh CASKIN2 (11723855_a_at) / RFU LOC730098 (11760151_x_at) / Fold change /veh LOC730098 (11760151_x_at) / RFU OR4N2 (11742367_at) / Fold change /veh OR4N2 (11742367_at) / RFU PRRT2 (11749266_a_at) / Fold change /veh PRRT2 (11749266_a_at) / RFU SNX32 (11753110_a_at) / Fold change /veh SNX32 (11753110_a_at) / RFU CDHR5 (11726645_a_at) / Fold change /veh CDHR5 (11726645_a_at) / RFU RCAN1 (11760418_a_at) / Fold change /veh RCAN1 (11760418_a_at) / RFU FAM167A (11723789_a_at) / Fold change /veh FAM167A (11723789_a_at) / RFU FAM26E (11764081_at) / Fold change /veh FAM26E (11764081_at) / RFU ISYNA1 (11749810_s_at) / Fold change /veh ISYNA1 (11749810_s_at) / RFU ACY1 (11761880_at) / Fold change /veh ACY1 (11761880_at) / RFU 11764098_at / Fold change /veh 11764098_at / RFU SAMD14 (11745864_x_at) / Fold change /veh SAMD14 (11745864_x_at) / RFU NPB (11741838_a_at) / Fold change /veh NPB (11741838_a_at) / RFU TMPRSS6 (11731388_a_at) / Fold change /veh TMPRSS6 (11731388_a_at) / RFU KRTAP10-2 (11738614_at) / Fold change /veh KRTAP10-2 (11738614_at) / RFU ARHGAP8 /// PRR5-ARHGAP8 (11727945_x_at) / Fold change /veh ARHGAP8 /// PRR5-ARHGAP8 (11727945_x_at) / RFU KRTAP5-7 /// NADSYN1 (11734609_at) / Fold change /veh KRTAP5-7 /// NADSYN1 (11734609_at) / RFU RASL12 (11751679_a_at) / Fold change /veh RASL12 (11751679_a_at) / RFU CDKN2B (11736163_a_at) / Fold change /veh CDKN2B (11736163_a_at) / RFU PRF1 (11729649_at) / Fold change /veh PRF1 (11729649_at) / RFU, ZNF638 /// ZNF638-IT1 / Fold change vs veh, ZNF638 /// ZNF638-IT1 / RFU, PANK3 / Fold change vs veh, PANK3 / RFU, SH3YL1 / Fold change vs veh, SH3YL1 / RFU, ZEB2 / Fold change vs veh, ZEB2 / RFU, NRIP1 / Fold change vs veh, NRIP1 / RFU, PTTG1IP / Fold change vs veh, PTTG1IP / RFU, CAPN2 / Fold change vs veh, CAPN2 / RFU, MED14 / Fold change vs veh, MED14 / RFU, SNORA58 / Fold change vs veh, SNORA58 / RFU, C1orf63 / Fold change vs veh, C1orf63 / RFU, LRRFIP1 / Fold change vs veh, LRRFIP1 / RFU, NDUFAF7 / Fold change vs veh, NDUFAF7 / RFU, SLC12A2 / Fold change vs veh, SLC12A2 / RFU, IBTK / Fold change vs veh, IBTK / RFU, ESF1 / Fold change vs veh, ESF1 / Fold change vs veh, TMEM50B / RFU, TAOK1 / Fold change vs veh, TAOK1 / RFU, ACBD3 / Fold change vs veh, ACBD3 / RFU, TMA16 / Fold change vs veh, TMA16 / RFU, RWDD3 / Fold change vs veh, RWDD3 / RFU, BCAT1 / Fold change vs veh, BCAT1 / RFU, EDEM3 / Fold change vs veh, EDEM3 / RFU, TMEM33 / Fold change vs veh, TMEM33 / RFU, WDR75 / Fold change vs veh, WDR75 / RFU, AHCTF1 / Fold change vs veh, AHCTF1 / RFU, TFRC / Fold change vs veh, TFRC / RFU, ZDHHC17 / Fold change vs veh, ZDHHC17 / RFU, NOM1 / Fold change vs veh, NOM1 / RFU, ARL8B / Fold change vs veh, ARL8B / RFU, ZBTB11 / Fold change vs veh, ZBTB11 / RFU, TAMM41 / Fold change vs veh, TAMM41 / RFU, KIAA1704 /// LOC100996395 / Fold change vs veh, KIAA1704 /// LOC100996395 / RFU, ING1 / Fold change vs veh, ING1 / RFU, TRMT61B / Fold change vs veh, TRMT61B / RFU, FUBP3 / Fold change vs veh, FUBP3 / RFU, TP53 / Fold change vs veh, TP53 / RFU, TNKS2 / Fold change vs veh, TNKS2 / RFU, ZFP14 / Fold change vs veh, ZFP14 / RFU, ACTR2 / Fold change vs veh, ACTR2 / RFU, PPP3R1 / Fold change vs veh, PPP3R1 / RFU, PIK3R1 / Fold change vs veh, PIK3R1 / RFU, HNRNPA1 / Fold change vs veh, HNRNPA1 / RFU, RNF170 / Fold change vs veh, RNF170 / RFU, ZNF28 / Fold change vs veh, ZNF28 / RFU, RNGTT / Fold change vs veh, RNGTT / RFU, OGT / Fold change vs veh, OGT / RFU, BRD1 / Fold change vs veh, BRD1 / RFU, MARS / Fold change vs veh, MARS / RFU, ZNF655 / Fold change vs veh, ZNF655 / RFU, FAHD1 / Fold change vs veh, FAHD1 / RFU, BDP1 / Fold change vs veh, BDP1 / RFU, LRRCC1 / Fold change vs veh, LRRCC1 / RFU, ARID1A / Fold change vs veh, ARID1A / RFU, ZNF146 / Fold change vs veh, ZNF146 / RFU, ZNF330 / Fold change vs veh, ZNF330 / RFU, GPN3 / Fold change vs veh, GPN3 / RFU, C9orf123 / Fold change vs veh, C9orf123 / RFU, N4BP2L2 / Fold change vs veh, N4BP2L2 / RFU, ARFIP1 / Fold change vs veh, ARFIP1 / RFU, FAM179B / Fold change vs veh, FAM179B / RFU, BCL10 / Fold change vs veh, BCL10 / RFU, UHRF1BP1L / Fold change vs veh, UHRF1BP1L / RFU, BET1 / Fold change vs veh, BET1 / RFU, CNOT2 / Fold change vs veh, CNOT2 / RFU, ZNF268 / Fold change vs veh, ZNF268 / Fold change vs veh, ZNF507 / RFU, DGCR2 / Fold change vs veh, DGCR2 / RFU, WDSUB1 / Fold change vs veh, WDSUB1 / Fold change vs veh, HSP90B1 /// MIR3652 / RFU, ADSS / Fold change vs veh, ADSS / RFU, GK / Fold change vs veh, GK / RFU, ZNF148 / Fold change vs veh, ZNF148 / RFU, TAF9 / Fold change vs veh, TAF9 / RFU, SLC1A5 / Fold change vs veh, SLC1A5 / RFU, SLMO2 / Fold change vs veh, SLMO2 / RFU, ABCC4 / Fold change vs veh, ABCC4 / RFU, LOC101060439 /// RAP1B / Fold change vs veh, LOC101060439 /// RAP1B / RFU, RFX7 / Fold change vs veh, RFX7 / RFU, GTPBP10 / Fold change vs veh, GTPBP10 / RFU, CNEP1R1 / Fold change vs veh, CNEP1R1 / RFU, BIVM-ERCC5 /// ERCC5 / Fold change vs veh, BIVM-ERCC5 /// ERCC5 / RFU, ILF3 / Fold change vs veh, ILF3 / RFU 11762660_at / Fold change /veh 11762660_at / RFU VCAN (11757783_s_at) / Fold change /veh VCAN (11757783_s_at) / RFU DDX43 (11728927_at) / Fold change /veh DDX43 (11728927_at) / RFU KRT8 (11758188_x_at) / Fold change /veh KRT8 (11758188_x_at) / RFU NKD1 (11759106_at) / Fold change /veh NKD1 (11759106_at) / RFU SRD5A1 (11742802_a_at) / Fold change /veh SRD5A1 (11742802_a_at) / RFU TPSAB1 /// TPSB2 (11721975_s_at) / Fold change /veh TPSAB1 /// TPSB2 (11721975_s_at) / RFU GSTM3 (11746129_a_at) / Fold change /veh GSTM3 (11746129_a_at) / RFU IL23R (11737362_x_at) / Fold change /veh IL23R (11737362_x_at) / RFU TMEM51 (11727254_a_at) / Fold change /veh TMEM51 (11727254_a_at) / RFU PIWIL2 (11732686_x_at) / Fold change /veh PIWIL2 (11732686_x_at) / RFU ORM1 (11744905_x_at) / Fold change /veh ORM1 (11744905_x_at) / RFU CCDC152 (11743942_at) / Fold change /veh CCDC152 (11743942_at) / RFU ECM1 (11717891_a_at) / Fold change /veh ECM1 (11717891_a_at) / RFU IL23R (11748794_a_at) / Fold change /veh IL23R (11748794_a_at) / RFU TNFAIP8L3 (11732012_x_at) / Fold change /veh TNFAIP8L3 (11732012_x_at) / RFU MBOAT4 (11741988_at) / Fold change /veh MBOAT4 (11741988_at) / RFU 11764193_at / Fold change /veh 11764193_at / RFU TMEM53 (11763286_at) / Fold change /veh TMEM53 (11763286_at) / RFU MAGEB2 (11727129_at) / Fold change /veh MAGEB2 (11727129_at) / RFU TMEM200A (11744735_a_at) / Fold change /veh TMEM200A (11744735_a_at) / RFU CCDC152 (11751479_a_at) / Fold change /veh CCDC152 (11751479_a_at) / RFU FAM211A (11726209_a_at) / Fold change /veh FAM211A (11726209_a_at) / RFU RGS16 (11746705_a_at) / Fold change /veh RGS16 (11746705_a_at) / RFU VCAN (11755009_s_at) / Fold change /veh VCAN (11755009_s_at) / RFU RHOB (11743442_s_at) / Fold change /veh RHOB (11743442_s_at) / RFU RGS16 (11720943_a_at) / Fold change /veh RGS16 (11720943_a_at) / RFU RGS16 (11720944_at) / Fold change /veh RGS16 (11720944_at) / RFU, VPS4B / Fold change vs veh, VPS4B / RFU, CREB1 / Fold change vs veh, CREB1 / RFU, DNAJC13 / Fold change vs veh, DNAJC13 / RFU, GNAQ / Fold change vs veh, GNAQ / RFU, CDK5R1 / Fold change vs veh, CDK5R1 / RFU, ZRANB3 / Fold change vs veh, ZRANB3 / RFU, CUL4A / Fold change vs veh, CUL4A / RFU, CCNY / Fold change vs veh, CCNY / RFU, UFL1 / Fold change vs veh, UFL1 / RFU, COG3 / Fold change vs veh, COG3 / RFU, DIAPH2 / Fold change vs veh, DIAPH2 / RFU, SKA2 / Fold change vs veh, SKA2 / RFU, AFF3 / Fold change vs veh, AFF3 / RFU, LMF1 / Fold change vs veh, LMF1 / RFU, IPO11 / Fold change vs veh, IPO11 / RFU, DFFB / Fold change vs veh, DFFB / RFU, FOXP1 / Fold change vs veh, FOXP1 / RFU, CARD8 / Fold change vs veh, CARD8 / RFU, STRN3 / Fold change vs veh, STRN3 / RFU, ADK / Fold change vs veh, ADK / RFU, RASSF2 / Fold change vs veh, RASSF2 / RFU, WIPF1 / Fold change vs veh, WIPF1 / RFU, LARP1B / Fold change vs veh, LARP1B / RFU, RASA1 / Fold change vs veh, RASA1 / RFU, RB1 / Fold change vs veh, RB1 / RFU, PPFIA1 / Fold change vs veh, PPFIA1 / RFU, MAT2A / Fold change vs veh, MAT2A / RFU, CCT5 / Fold change vs veh, CCT5 / RFU, WDR92 / Fold change vs veh, WDR92 / RFU, CUX1 / Fold change vs veh, CUX1 / RFU, TTC7A / Fold change vs veh, TTC7A / RFU, TMEM135 / Fold change vs veh, TMEM135 / RFU, DEPTOR / Fold change vs veh, DEPTOR / RFU, CPM / Fold change vs veh, CPM / RFU, DNAJB6 / Fold change vs veh, DNAJB6 / RFU, CACNA2D3 / Fold change vs veh, CACNA2D3 / RFU, DTX4 / Fold change vs veh, DTX4 / RFU, TFCP2 / Fold change vs veh, TFCP2 / RFU, GMCL1 /// GMCL1P1 / Fold change vs veh, GMCL1 /// GMCL1P1 / RFU, AEBP2 / Fold change vs veh, AEBP2 / RFU, SNHG1 /// SNORD22 /// SNORD25 /// SNORD26 /// SNORD27 /// SNORD28 /// SNORD29 /// SNORD31 / Fold change vs veh, SNHG1 /// SNORD22 /// SNORD25 /// SNORD26 /// SNORD27 /// SNORD28 /// SNORD29 /// SNORD31 / Fold change (Aza/veh), C12orf56 (ProbeSet 11735607_a_at) / Fold change (ACY-1035/veh), C12orf56 (ProbeSet 11735607_a_at) / Fold change (Aza/veh), FGFR1OP (ProbeSet 11751329_s_at) / Fold change (ACY-1035/veh), FGFR1OP (ProbeSet 11751329_s_at) / Fold change (Aza/veh), VPS36 (ProbeSet 11739960_a_at) / Fold change (ACY-1035/veh), VPS36 (ProbeSet 11739960_a_at) / RFU SYPL1 (11715823_x_at) / Fold change /veh SYPL1 (11715823_x_at) / RFU IGFBP7 (11715501_s_at) / Fold change /veh IGFBP7 (11715501_s_at) / RFU REEP3 (11722064_at) / Fold change /veh REEP3 (11722064_at) / RFU IGLL1 (11728026_x_at) / Fold change /veh IGLL1 (11728026_x_at): dose or concentration left out as unconfirmed
Conditions: ProbeSet 11754362_a_at; LIST D

## Nc1ccc(-c2cccs2)cc1NC(=O)c1ccc2c(c1)cc(C1CC1)n2CCN1CCOCC1 [ACY-1035]
  RFU, TTC7A: 150.96 RFU
